Assay results reported in PMC8703450, “New Heterocyclic Combretastatin A-4 Analogs: Synthesis and Biological Activity of Styryl-2(3H)-benzothiazolones” (Pharmaceuticals, 2021).

Experiments:
EA.hy926 cells [1] = assay: MTT cytotoxicity / growth inhibition assay, EA.hy926; type: cell-based, human
Experimental: The endothelial cell line (EA.hy926) was kindly provided by Dr. C-J.S. Edgell—University of North Carolina, USA. Cells were cultured in 4.5 g/L D-Glucose DMEM/F12 medium, supplemented with 10% fetal bovine serum (FBS, Cytogen GmBH, Greven, Germany) and 100 U/mL penicillin and streptomycin (Lonza BioWhitaker, Verviers, Belgium). The other cell lines used are described in Table S3.1. Cell cultures were maintained in an incubator at 37 °C with 95% humidity and 5% CO2 and were routinely found free of mycoplasma.
All tested compounds were dissolved in DMSO at 25 mM initial concentration and diluted with medium to obtain the working concentrations (0.01 nM–250 µM). Serial drug dilutions were prepared in medium immediately before each experiment. The DMSO working concentration in the medium was […]. For the MTT assay, cells were seeded into 96-well microtitre plates at a density of 1 × 10^4 in 100 µL complete medium per well. They were further incubated for 24 h, followed by treatment with CA-4 analogs up to 72 h. Cell viability was determined using the MTT assay. Ten µL of MTT solution (5 mg/mL) was added to each well and further incubated for 3 h at 37 °C. To dissolve the formazan product, 100 µL/well of 99.5% isopropanol was added. Cell viability was determined by measuring absorbance at 550/630 nm using a DTX880 plate reader (Beckman Coulter, USA). Results, expressed as concentrations that inhibit 20% (IC20), 50% (IC50), and 80% (IC80) of cell growth, were calculated using GraphPad Prism 8.0.1.

EA.hy926 cells [2] = assay: Clonogenic survival assay; type: cell-based, human; details: 72 h treatment + 6 days recovery; for decrease in colony number: EA.hy926, 250 nM; for reduction in colony formation: EA.hy926, 2.5, 10 and 25 µM
Experimental: EA.hy926 cells were seeded at 300 cells/well on a 6-well plate and incubated for 24 h. The cells were treated with different concentrations of test compounds for 72 h. After six additional days of growth in a fresh medium to form visible colonies, cells were washed with phosphate-buffered saline (PBS, pH 7.4) and stained with crystal violet (0.5%, w/v) in 6% glutaraldehyde. After 30 min of incubation, the plates were washed with tap water, dried, photographed, and analyzed using ImageJ [79]. Raw data were normalized to the corresponding DMSO control for each independent experiment. After normalization, statistically significant differences for colony-forming efficiency (CFE) values versus […] were calculated.

EA.hy926 cells [3] = assay: In vitro cell migration (wound-healing) assay; type: cell-based, human; details: EA.hy926, 50 nM, 24 h
Experimental: A total of 3 × 10^5 EA.hy926 cells were seeded in a 12-well plate and grown close to the confluence. The cell monolayer was gently scraped with a P200 pipette tip, creating a wound area around 1-mm wide. Cells were washed twice with fresh medium and treated with test compounds diluted in growth media to the corresponding sub-toxic concentrations. Images were acquired at 0 and 24 h following treatment. After incubation for 24 h, the scratch wound width was measured and recorded, and then compared with the initial scratch wound width at 0 h. Using the ImageJ image processing program (ImageJ150-WIN-Java8), the size of the denuded area in pixels was determined at each time point from the digital images.

α,β-tubulin = assay: In vitro quantification of polymeric vs. soluble tubulin fractions in EA.hy926 cells; type: cell-based, human; details: EA.hy926, 1 µM, 6 h; DMSO control 2.33 ± 0.14
Experimental: To assess the early effects on the microtubule cytoskeleton in vitro, EA.hy926 cells were cultured for 24 h in 6-cm dishes (3 × 10^5 cells). They were exposed to […] (control), 1 μM CA-4, paclitaxel, or increasing concentrations of 26Z (50, 100, 250, 2500, 10,000 nM) for 6 h. Cells were washed with PBS and lysed directly in the dishes with hypotonic lysis buffer (20 mM Tris-HCl, 1 mM MgCl2, 2 mM EGTA, 0.5% Triton X-100, glycerol 10%, pH 6.8), supplemented with protease inhibitors (2 μg/mL leupeptin, 2 μg/mL pepstatin, 0.4 mM Na vanadate, 0.5 mM PMSF, 1 mM DTT), for 3 min at 30 °C. The soluble fraction was immediately collected, mixed with 5× sample buffer, and boiled at 95 °C for 5 min. The polymerized fraction was collected directly from the culture dish following 10 min of incubation at room temperature with 1× sample buffer.
For the concentration-dependent assay, the cells were harvested by scraping and centrifuged at 1000 g for 5 min, and then lysed with the hypotonic cell lysis buffer for 10 min at room temperature. Tubulin fractions were obtained by centrifugation at 12,000 × g for 10 min.
Equal volumes of the samples were subjected to 10% SDS-PAGE followed by western blotting. Detection of β-tubulin content was accomplished with an anti-β-tubulin mouse monoclonal antibody (sc-101527, Santa Cruz Biotechnology).

EA.hy926 cells [4] = assay: Matrigel tube disruption assay; type: cell-based, human; details: EA.hy926 on Matrigel, IC50 concentration, 24 h of treatment, compared with time 0
Experimental: The tube formation assay was performed in 96-well plates coated with 40 µL BD Matrigel™ (basement membrane matrix), following the manufacturer’s instruction (BD Biosciences). A total of 2 × 10^4 EA.hy926 cells was re-suspended in growth medium and added to each well in a final volume of 100 µL. Tube formation was visualized directly using a light microscope. Images were captured using a phase-contrast microscope and quantitation was performed using the WimTube application of the Wimasis online image analysis platform (https://www.wimasis.com/en/products/13/WimTube; accessed on 1 June 2021).

[5] = test system: rhodamine-labeled α,β-tubulin; assay: Ex vivo rhodamine-tubulin polymerization (fluorescence microscopy); details: 20 μM, 37 °C, 45 min
Experimental: TAMRA-Tubulin (TL590M, Cytoskeleton) diluted in GTB buffer (PEM, 10% glycerol, 1 mM GTP) was mixed with unlabeled α,β-tubulin (T240, Cytoskeleton) at a ratio of 1:3 (v/v) to a concentration of 4.0 mg/mL. […] Samples were then centrifuged for 20 min at 30,000× g. The pellets were diluted in 6 µL PEM buffer, containing 1 mM GTP and 0.5% glutaraldehyde, mixed with anti-fade mounting media (P36934, Invitrogen, Eugene, USA), and examined under a confocal LSM 980 Airyscan microscope (Carl Zeiss AG, Oberkochen, Germany).

[6] = Homo sapiens, EA.hy 926, 72 h of treatment

COc1ccc(/C=C\c2cccc3sc(=O)n(C)c23)cc1 [Compound 15Z, (E/Z)-4-(4-Methoxystyryl)-3-Methyl-2(3H)-Benzothiazolone]
IC50 (EA.hy926 cells [1]; 72 h of treatment): 22 ± 4.57 µM

COc1ccc(/C=C\c2cccc3sc(=O)n(C)c23)cc1OC [Compound 16Z, (Z)-4-(3,4-Dimethoxystyryl)-3-methyl-2(3H)-benzothiazolone]
IC50 (EA.hy926 cells [1]; [6]): 25.8 ± 3.11 µM

COc1cc(/C=C\c2cccc3sc(=O)n(C)c23)cc(OC)c1 [Compound 17Z, (Z)-4-(3,5-Dimethoxystyryl)-3-methyl-2(3H)-benzothiazolone]
IC50 (EA.hy926 cells [1]; [6]): 19.5 ± 2.71 µM

COc1cc(/C=C\c2cccc3sc(=O)n(C)c23)cc(OC)c1OC [Compound 18Z, (Z)-3-Methyl-4-(3,4,5-trimethoxystyryl)-2(3H)-benzothiazolone]
IC50 (EA.hy926 cells [1]; [6]): 15.6 ± 1.16 µM

COc1ccc(/C=C\c2ccc3sc(=O)n(C)c3c2)cc1 [Compound 19Z, (Z)-5-(4-Methoxystyryl)-3-methyl-2(3H)-benzothiazolone]
IC50 (EA.hy926 cells [1]; [6]): 12 ± 2.49 µM

COc1ccc(/C=C\c2ccc3sc(=O)n(C)c3c2)cc1OC [Compound 20Z, (Z)-5-(3,4-Dimethoxystyryl)-3-methyl-2(3H)-benzothiazolone]
IC50 (EA.hy926 cells [1]; [6]): 14.6 ± 1.75 µM

COc1cc(/C=C\c2ccc3sc(=O)n(C)c3c2)cc(OC)c1 [Compound 21Z, (Z)-5-(3,5-Dimethoxystyryl)-3-methyl-2(3H)-benzothiazolone]
IC50 (EA.hy926 cells [1]; [6]): 10.8 ± 0.62 µM

COc1cc(/C=C\c2ccc3sc(=O)n(C)c3c2)cc(OC)c1OC [Compound 22Z, (Z)-3-Methyl-5-(3,4,5-trimethoxystyryl)-2(3H)-benzothiazolone]
IC50 (EA.hy926 cells [1]; [6]): 9.43 ± 0.92 µM

COc1ccc(/C=C\c2ccc3c(c2)sc(=O)n3C)cc1 [Compound 23Z, (Z)-6-(4-Methoxystyryl)-3-methyl-2(3H)-benzothiazolone]
IC50 (EA.hy926 cells [1]; [6]): 19.8 ± 3.45 µM

COc1ccc(/C=C\c2ccc3c(c2)sc(=O)n3C)cc1OC [Compound 24Z, (Z)-6-(3,4-Dimethoxystyryl)-3-methyl-2(3H)-benzothiazolone]
IC50 (EA.hy926 cells [1]; [6]): 9.28 ± 1.13 µM

COc1cc(/C=C\c2ccc3c(c2)sc(=O)n3C)cc(OC)c1 [Compound 25Z, (Z)-6-(3,5-Dimethoxystyryl)-3-methyl-2(3H)-benzothiazolone]
IC50 (EA.hy926 cells [1]; [6]): 1.88 ± 0.18 µM | decrease in colony number (EA.hy926 cells [2]): 55% | reduction in colony formation (EA.hy926 cells [2]): about 100% | remaining mean wound opened area (EA.hy926 cells [3]): 22.4%

COc1cc(/C=C/c2ccc3c(c2)sc(=O)n3C)cc(OC)c1OC [Compound 26E, (E/Z)-3-Methyl-6-(3,4,5-Trimethoxystyryl)-2(3H)-Benzothiazolone]
IC50 (EA.hy926 cells [1]; 72 h of treatment): 38.2 ± 5.35 µM

COc1cc(/C=C\c2cccc3c2sc(=O)n3C)cc(OC)c1OC [Compound 27Z, (E/Z)-3-Methyl-7-(3,4,5-Trimethoxystyryl)-2(3H)-Benzothiazolone]
melting point: 155 to 156 °C | IC50 (EA.hy926 cells [1]; [6]): 0.3 ± 0.05 µM | soluble vs. polymerized tubulin ratio (α,β-tubulin): 1.82 ± 0.36 | decrease in colony number (EA.hy926 cells [2]): 75% | reduction in colony formation (EA.hy926 cells [2]): about 100% | remaining mean wound opened area (EA.hy926 cells [3]): 3% | reduction in cumulative tube length (EA.hy926 cells [4]): ~ 70%

CC(=O)O[C@H]1C(=O)[C@@]2(C)[C@H]([C@H](OC(=O)c3ccccc3)[C@]3(O)C[C@H](OC(=O)[C@H](O)[C@@H](NC(=O)c4ccccc4)c4ccccc4)C(C)=C1C3(C)C)[C@]1(OC(C)=O)CO[C@@H]1C[C@@H]2O [paclitaxel, reference compound]
soluble vs. polymerized tubulin ratio (α,β-tubulin): 0.51 ± 0.19 | fluorescent microtubule fiber formation [5]: promoted the formation of microtubule fibers
